Experiments:
[1] = molecular target: C-C chemokine receptor type 5 (Homo sapiens, UniProt P51681); experiment: Antagonist activity at CCR5 (unknown origin) expressed in HEK293 cells co-expressing Galpha16 assessed as intracellular calcium change incubated for 15 mins by Fluo-4 AM calcium flux assay; format: functional, cell-based
[2] = test system: Human immunodeficiency virus 1; experiment: Antiviral activity against HIV-1 Ba-L infected in human TZM-bl cells measured after 48 hrs incubation by luciferase based analysis; format: functional, organism-based; conditions: Human immunodeficiency virus 1, Ba-L
[3] = Cytotoxicity against human TZM-bl cells incubated for 48 hrs by MTT assay; format: toxicity, cell-based
[4] = Cytotoxicity against human PM1 cells incubated for 48 hrs by MTT assay; format: toxicity, cell-based
[5] = Cytotoxicity against human HOS-CD4-CCR5 cells incubated for 48 hrs by MTT assay; format: toxicity, cell-based
[6] = Cytotoxicity against human PBMC cells incubated for 48 hrs by MTT assay; format: toxicity, cell-based
[7] = test system: Human immunodeficiency virus 1; experiment: Antiviral activity against HIV-1 SF162 infected in human TZM-bl cells measured after 48 hrs incubation by luciferase based analysis; format: functional, organism-based; conditions: Human immunodeficiency virus 1, SF162, TZM-bl
[8] = test system: Human immunodeficiency virus 1; experiment: Antiviral activity against HIV-1 YU-2 infected in human TZM-bl cells measured after 48 hrs incubation by luciferase based analysis; format: functional, organism-based; conditions: Human immunodeficiency virus 1, YU-2, TZM-bl, 48 h
[9] = test system: Human immunodeficiency virus 1; experiment: Antiviral activity against HIV-1 Ba-L infected in human HOS-CD4-CCR5 cells measured after 48 hrs incubation by ELISA based p24 antigen assay; format: functional, organism-based; conditions: Human immunodeficiency virus 1, Ba-L
[10] = test system: Human immunodeficiency virus 1; experiment: Antiviral activity against HIV-1 Ba-L infected in human PM1 cells measured after 48 hrs incubation by ELISA based p24 antigen assay; format: functional, organism-based; conditions: Human immunodeficiency virus 1, Ba-L, PM1, 48 h
[11] = test system: Human immunodeficiency virus 1; experiment: Antiviral activity against HIV-1 IIIB infected in human TZM-bl cells measured after 48 hrs incubation by luciferase based analysis; format: functional, organism-based; conditions: Human immunodeficiency virus 1, IIIB
[12] = test system: Human immunodeficiency virus 1; experiment: Antiviral activity against HIV-1 KM018 clinical isolate infected in human PBMC measured after 48 hrs incubation by luciferase based analysis; format: functional, organism-based; conditions: Human immunodeficiency virus 1, KM018, PBMC
[13] = test system: Human immunodeficiency virus 1; experiment: Antiviral activity against HIV-1 KIZ001 clinical isolate infected in human PBMC measured after 48 hrs incubation by luciferase based analysis; format: functional, organism-based; conditions: Human immunodeficiency virus 1, KIZ001, PBMC
[14] = test system: Human immunodeficiency virus 1; experiment: Antiviral activity against HIV-1 KIZ006 clinical isolate infected in human PBMC measured after 48 hrs incubation by luciferase based analysis; format: functional, organism-based; conditions: Human immunodeficiency virus 1, KIZ006, PBMC
[15] = test system: Human immunodeficiency virus 1; experiment: Antiviral activity against HIV-1 YU-2 (G140S/Q148H) infected in human TZM-bl cells measured after 48 hrs incubation by luciferase based analysis; format: functional, organism-based; conditions: Human immunodeficiency virus 1, YU-2 (G140S/Q148H)
[16] = test system: Human immunodeficiency virus 1; experiment: Synergistic antiviral activity against HIV-1 Ba-L infected in human TZM-bl cells assessed as combination index in presence of zidovudine; format: functional
[17] = test system: Human immunodeficiency virus 1; experiment: Synergistic antiviral activity against HIV-1 Ba-L infected in human TZM-bl cells assessed as combination index in presence of lamivudine; format: functional
[18] = test system: Human immunodeficiency virus 1; experiment: Synergistic antiviral activity against HIV-1 Ba-L infected in human TZM-bl cells assessed as combination index in presence of tenofovir; format: functional
[19] = test system: Human immunodeficiency virus 1; experiment: Synergistic antiviral activity against HIV-1 Ba-L infected in human TZM-bl cells assessed as combination index in presence of etravirine; format: functional
[20] = test system: Human immunodeficiency virus 1; experiment: Synergistic antiviral activity against HIV-1 Ba-L infected in human TZM-bl cells assessed as combination index in presence of emtricitabine; format: functional
[21] = test system: Human immunodeficiency virus 1; experiment: Synergistic antiviral activity against HIV-1 Ba-L infected in human TZM-bl cells assessed as combination index in presence of nevirapine; format: functional
[22] = test system: Human immunodeficiency virus 1; experiment: Synergistic antiviral activity against HIV-1 Ba-L infected in human TZM-bl cells assessed as combination index in presence of efavirenz; format: functional
[23] = test system: Human immunodeficiency virus 1; experiment: Synergistic antiviral activity against HIV-1 Ba-L infected in human TZM-bl cells assessed as combination index in presence of raltegravir; format: functional
[24] = test system: Human immunodeficiency virus 1; experiment: Synergistic antiviral activity against HIV-1 Ba-L infected in human TZM-bl cells assessed as combination index in presence of dolutegravir; format: functional
[25] = test system: Human immunodeficiency virus 1; experiment: Synergistic antiviral activity against HIV-1 Ba-L infected in human TZM-bl cells assessed as combination index in presence of indinavir; format: functional
[26] = test system: Human immunodeficiency virus 1; experiment: Synergistic antiviral activity against HIV-1 Ba-L infected in human TZM-bl cells assessed as combination index in presence of T-20; format: functional
[27] = Cmax in Sprague-Dawley rat at 10 mg/kg, po measured upto 24 hrs; format: ADME, organism-based; design: time < 24 hrs, dose 10 mg/kg, route po; conditions: in vivo
[28] = Tmax in Sprague-Dawley rat at 10 mg/kg, po measured upto 24 hrs; format: ADME, organism-based; conditions: in vivo
[29] = Half life in Sprague-Dawley rat at 10 mg/kg, po measured upto 24 hrs; format: ADME, organism-based; conditions: in vivo
[30] = AUC (0 to last) in Sprague-Dawley rat at 10 mg/kg, po measured upto 24 hrs; format: ADME, organism-based; design: dose 10 mg/kg, time < 24 hrs, route po; conditions: in vivo
[31] = AUC (0 to infinitive) in Sprague-Dawley rat at 10 mg/kg, po measured upto 24 hrs; format: ADME, organism-based; design: dose 10 mg/kg, time < 24 hrs, route po; conditions: in vivo
[32] = MRT in Sprague-Dawley rat at 10 mg/kg, po measured upto 24 hrs; format: ADME, organism-based; conditions: in vivo
[33] = Oral bioavailability in Sprague-Dawley rat at 10 mg/kg measured upto 24 hrs; format: ADME, organism-based; conditions: in vivo, po, 10 mg/kg, 24 h
[34] = Half life in Sprague-Dawley rat at 2 mg/kg, iv measured upto 24 hrs; format: ADME, organism-based; conditions: Sprague-Dawley, in vivo
[35] = AUC (0 to last) in Sprague-Dawley rat at 2 mg/kg, iv measured upto 24 hrs; format: ADME, organism-based; design: dose 2 mg/kg, time < 24 hrs, route iv; conditions: in vivo, 24 h
[36] = AUC (0 to infinitive) in Sprague-Dawley rat at 2 mg/kg, iv measured upto 24 hrs; format: ADME, organism-based; design: dose 2 mg/kg, time < 24 hrs, route iv; conditions: in vivo, 24 h
[37] = MRT in Sprague-Dawley rat at 2 mg/kg, iv measured upto 24 hrs; format: ADME, organism-based; conditions: Sprague-Dawley, in vivo, read-out: MRT
[38] = molecular target: T1, Cytochrome P450 1A2 (Homo sapiens, UniProt P05177); experiment: Inhibition of CYP1A2 (unknown origin); format: ADME
T1 sequence (P05177 whole entry): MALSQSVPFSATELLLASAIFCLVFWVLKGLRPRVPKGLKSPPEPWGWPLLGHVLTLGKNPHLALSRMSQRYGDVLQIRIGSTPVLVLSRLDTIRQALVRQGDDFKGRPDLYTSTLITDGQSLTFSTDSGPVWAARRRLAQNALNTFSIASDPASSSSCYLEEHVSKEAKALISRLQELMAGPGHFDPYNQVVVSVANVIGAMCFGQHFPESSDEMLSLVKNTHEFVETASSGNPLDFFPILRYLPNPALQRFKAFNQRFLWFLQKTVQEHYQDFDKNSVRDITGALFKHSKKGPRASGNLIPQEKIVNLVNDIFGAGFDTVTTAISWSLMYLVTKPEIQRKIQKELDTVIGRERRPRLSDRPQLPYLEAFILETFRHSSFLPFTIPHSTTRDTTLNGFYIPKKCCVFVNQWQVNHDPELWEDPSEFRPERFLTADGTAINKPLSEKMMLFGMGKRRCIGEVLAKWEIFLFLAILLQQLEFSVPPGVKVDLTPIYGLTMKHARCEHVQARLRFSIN

[39] = molecular target: Cytochrome P450 2C9 (Homo sapiens, UniProt P11712); experiment: Inhibition of CYP2C9 (unknown origin); format: ADME
Cytochrome P450 2C9, sequence (P11712 whole entry): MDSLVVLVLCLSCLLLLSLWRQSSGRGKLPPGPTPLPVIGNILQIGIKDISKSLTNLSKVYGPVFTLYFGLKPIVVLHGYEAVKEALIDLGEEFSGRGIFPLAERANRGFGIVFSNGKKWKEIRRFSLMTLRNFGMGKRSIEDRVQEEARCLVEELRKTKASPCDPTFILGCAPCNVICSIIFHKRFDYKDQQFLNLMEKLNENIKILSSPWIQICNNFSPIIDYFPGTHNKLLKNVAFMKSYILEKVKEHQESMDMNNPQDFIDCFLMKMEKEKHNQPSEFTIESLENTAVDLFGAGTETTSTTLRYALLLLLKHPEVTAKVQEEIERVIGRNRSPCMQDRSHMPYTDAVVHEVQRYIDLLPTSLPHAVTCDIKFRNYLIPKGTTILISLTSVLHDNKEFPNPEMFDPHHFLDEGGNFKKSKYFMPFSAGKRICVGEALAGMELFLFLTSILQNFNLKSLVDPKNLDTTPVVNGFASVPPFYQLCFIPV

[40] = molecular target: Cytochrome P450 2C19 (Homo sapiens, UniProt P33261); experiment: Inhibition of CYP2C19 (unknown origin); format: ADME
Cytochrome P450 2C19, sequence (P33261 whole entry): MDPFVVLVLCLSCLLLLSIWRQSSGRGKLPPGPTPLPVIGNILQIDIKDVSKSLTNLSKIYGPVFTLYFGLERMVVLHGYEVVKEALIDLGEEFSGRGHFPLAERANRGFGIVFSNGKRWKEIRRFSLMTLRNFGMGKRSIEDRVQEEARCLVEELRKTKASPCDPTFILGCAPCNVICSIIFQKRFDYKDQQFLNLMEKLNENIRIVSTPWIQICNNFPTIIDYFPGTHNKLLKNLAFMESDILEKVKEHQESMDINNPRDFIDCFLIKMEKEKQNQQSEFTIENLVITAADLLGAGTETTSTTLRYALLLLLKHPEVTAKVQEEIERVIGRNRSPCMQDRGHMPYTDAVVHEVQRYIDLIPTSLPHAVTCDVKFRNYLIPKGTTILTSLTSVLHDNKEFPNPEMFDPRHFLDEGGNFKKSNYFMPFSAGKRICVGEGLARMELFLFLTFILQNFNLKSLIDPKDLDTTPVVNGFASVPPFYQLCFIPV

[41] = molecular target: Cytochrome P450 2D6 (Homo sapiens, UniProt P10635); experiment: Inhibition of CYP2D6 (unknown origin); format: ADME
Cytochrome P450 2D6, sequence (P10635 whole entry): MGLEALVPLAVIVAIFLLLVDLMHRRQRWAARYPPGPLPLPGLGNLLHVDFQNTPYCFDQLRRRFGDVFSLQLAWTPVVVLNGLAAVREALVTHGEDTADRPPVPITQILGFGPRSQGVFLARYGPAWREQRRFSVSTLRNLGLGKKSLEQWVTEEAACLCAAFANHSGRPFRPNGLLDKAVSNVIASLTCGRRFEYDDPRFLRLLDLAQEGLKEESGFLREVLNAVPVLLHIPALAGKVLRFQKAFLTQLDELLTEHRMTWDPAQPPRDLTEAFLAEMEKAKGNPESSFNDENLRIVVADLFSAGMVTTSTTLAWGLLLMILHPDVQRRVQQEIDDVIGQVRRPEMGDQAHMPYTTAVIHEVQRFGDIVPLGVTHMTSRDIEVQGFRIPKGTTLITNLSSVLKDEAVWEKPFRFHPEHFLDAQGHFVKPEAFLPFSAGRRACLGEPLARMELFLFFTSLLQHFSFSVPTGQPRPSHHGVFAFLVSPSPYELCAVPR

[42] = molecular target: T2, Cytochrome P450 3A4 (Homo sapiens, UniProt P08684); experiment: Inhibition of CYP3A4 (unknown origin) using midazolam as substrate; format: ADME
T2 sequence (P08684 whole entry): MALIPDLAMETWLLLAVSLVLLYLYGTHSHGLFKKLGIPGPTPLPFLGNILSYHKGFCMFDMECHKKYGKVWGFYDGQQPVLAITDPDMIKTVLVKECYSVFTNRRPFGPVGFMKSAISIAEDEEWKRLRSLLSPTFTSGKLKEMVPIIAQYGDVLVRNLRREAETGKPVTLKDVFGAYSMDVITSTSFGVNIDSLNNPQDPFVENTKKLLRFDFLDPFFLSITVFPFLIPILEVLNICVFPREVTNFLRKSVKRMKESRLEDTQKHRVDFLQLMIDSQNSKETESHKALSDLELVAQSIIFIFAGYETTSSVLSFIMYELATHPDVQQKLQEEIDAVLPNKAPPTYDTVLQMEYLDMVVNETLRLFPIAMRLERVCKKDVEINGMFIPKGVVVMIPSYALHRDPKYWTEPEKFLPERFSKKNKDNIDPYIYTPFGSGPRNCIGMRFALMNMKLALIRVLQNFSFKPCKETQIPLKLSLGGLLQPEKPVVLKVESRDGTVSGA

[43] = molecular target: T2, Cytochrome P450 3A4; experiment: Inhibition of CYP3A4 (unknown origin) using testosterone as substrate; format: ADME
[44] = in vitro; conditions: human, TZM-bl cells
Description: Therapeutic index, ratio of CC50 for human TZM-bl cells to EC50 for antiviral activity against HIV-1 Ba-L

[45] = in vitro; conditions: human, HOS-CD4-CCR5 cells
Description: Therapeutic index, ratio of CC50 for human HOS-CD4-CCR5 cells to EC50 for antiviral activity against HIV-1 Ba-L

[46] = in vitro; conditions: human, PM1 cells
Description: Therapeutic index, ratio of CC50 for human PM1 cells to EC50 for antiviral activity against HIV-1 Ba-L

[47] = in vitro; conditions: human, PM1 cells; remark: listed apart in the source
Description: Therapeutic index, ratio of CC50 for human PM1 cells to EC50 for antiviral activity against HIV-1 YU-2

[48] = in vitro; conditions: human, PM1 cells; remark: listed apart in the source
Description: Therapeutic index, ratio of CC50 for human PM1 cells to EC50 for antiviral activity against HIV-1 SF162

[49] = in vitro; conditions: human, PBMC
Description: Therapeutic index, ratio of CC50 for human PBMC to EC50 for antiviral activity against HIV-1 KM018 clinical isolate

[50] = in vitro; conditions: human, PBMC; remark: listed apart in the source
Description: Therapeutic index, ratio of CC50 for human PBMC to EC50 for antiviral activity against HIV-1 KIZ001 clinical isolate

[51] = in vitro; conditions: human, PBMC; remark: listed apart in the source
Description: Therapeutic index, ratio of CC50 for human PBMC to EC50 for antiviral activity against HIV-1 KIZ006 clinical isolate

[52] = Half life in Sprague-Dawley rat at 1 mg/kg, iv measured upto 24 hrs; format: ADME, organism-based; conditions: in vivo
[53] = Clearance in Sprague-Dawley rat at 1 mg/kg, iv measured upto 24 hrs; format: ADME, organism-based; conditions: in vivo

C-C chemokine receptor type 5, sequence (P51681 whole entry): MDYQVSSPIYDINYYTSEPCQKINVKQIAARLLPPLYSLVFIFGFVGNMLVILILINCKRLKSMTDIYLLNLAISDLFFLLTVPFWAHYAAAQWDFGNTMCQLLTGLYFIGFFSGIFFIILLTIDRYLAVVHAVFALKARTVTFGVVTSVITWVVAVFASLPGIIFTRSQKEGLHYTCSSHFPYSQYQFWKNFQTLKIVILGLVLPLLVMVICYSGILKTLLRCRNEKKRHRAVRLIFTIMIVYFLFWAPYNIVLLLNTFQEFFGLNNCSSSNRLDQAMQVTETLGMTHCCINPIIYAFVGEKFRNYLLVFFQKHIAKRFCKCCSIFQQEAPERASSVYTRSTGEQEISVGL

## CC(=O)N1CCc2c(nc(C)n2[C@@H]2C[C@H]3CC[C@@H](C2)N3CC[C@H](NC(=O)C2CCC(F)(F)CC2)c2ccsc2)C1
[1]
  IC50: 15.9 nM
[2]
  EC50: 10 nM
[3]
  CC50 at 48 h: > 200 µM
[4]
  CC50 at 48 h: > 200 µM
[5]
  CC50 at 48 h: > 200 µM
[6]
  CC50 at 48 h: 103 µM
[7]
  EC50: 7.64 nM
[8]
  EC50: 2.89 nM
[9]
  EC50: 0.66 nM
[10]
  EC50: 0.29 nM
[11]
  EC50: > 1000 nM
[12]
  EC50: 23.3 nM
[13]
  EC50: 5.26 nM
[14]
  EC50: 19 nM
[15]
  EC50: 2.71 nM
[16]
  CI: 0.6
[17]
  CI: 0.69
[18]
  CI: 0.47
[19]
  CI: 0.75
[20]
  CI: 0.44
[21]
  CI: 0.41
[22]
  CI: 0.85
[23]
  CI: 0.46
[24]
  CI: 0.5
[25]
  CI: 0.95
[26]
  CI: 0.33
[27]
  Cmax: 66.4 ng/mL
[28]
  Tmax: 2.67 h
[29]
  half-life: 386 min
[30]
  AUC(0-t) at 24 h: 270 ng·h/mL
[31]; 24 h
  AUC: 270 ng·h/mL
[32]
  MRT: 9.16 h
[33]
  F: 11.9%
[34]
  half-life: 200 min
[35]
  AUC: 270 ng·h/mL
[36]
  AUC: 3.44 ng·h/mL
[37]
  MRT: 9.16 h
[38]
  IC50: > 25 µM
[39]
  IC50: > 25 µM
[40]
  IC50: > 25 µM
[41]
  IC50: > 25 µM
[42]
  IC50: > 25 µM
[43]
  IC50: > 25 µM
[44]
  selectivity ratio: > 20000
[45]
  selectivity ratio: > 30300
[46]
  selectivity ratio: > 69000
[47]
  selectivity ratio: > 69200
[48]
  selectivity ratio: > 26200
[49]
  selectivity ratio: 4400
[50]
  selectivity ratio: 19500
[51]
  selectivity ratio: 5390

## Cc1nnc(C(C)C)n1[C@@H]1C[C@H]2CC[C@@H](C1)N2CC[C@H](NC(=O)C1CCC(F)(F)CC1)c1ccccc1 [MARAVIROC]
[3]
  CC50 at 48 h: > 200 µM
[4]
  CC50 at 48 h: > 200 µM
[5]
  CC50 at 48 h: > 200 µM
[6]
  CC50 at 48 h: > 200 µM
[27]
  Cmax: 5.5 ng/mL
[28]
  Tmax: 2 h
[31]; Sprague-Dawley
  AUC(0-inf): 12.4 ng·h/mL
[34]
  half-life: 54 min
[52]
  half-life: 54 min
[53]
  clearance: 74 mL/min/kg
[38]
  IC50: > 25 µM
[39]
  IC50: 14.4 µM
[40]
  IC50: > 25 µM
[41]
  IC50: > 25 µM
